ChEMBL document CHEMBL5260795, “Antifungal potential of marine natural products” (Eur J Med Chem, 2017)
≈ marks a conversion by molar mass, not a printed value.

Tests used:
Botrytis cinerea = test: Antifungal activity against Botrytis cinerea AJ 117140 assessed as inhibition of fungal growth; type: functional
Globisporangium ultimum = test: Antifungal activity against Pythium ultimum IFO32210 assessed as inhibition of fungal growth; type: functional
Saprolegnia parasitica = test: Antifungal activity against Saprolegnia parasitica IFO8978 assessed as inhibition of fungal growth; type: functional
Aspergillus fumigatus = test: Antimicrobial activity against Aspergillus fumigatus; type: functional
Alternaria brassicae = test: Antifungal activity against Alternaria brassicae assessed as inhibition of fungal growth; type: functional
Aspergillus = test: Antimicrobial activity against Aspergillus; type: functional
Nakaseomyces glabratus = test: Antifungal activity against fluconazole-resistant Candida glabrata by CLSI protocol based macrobroth dilution method; type: functional
Pichia kudriavzevii = test: Antifungal activity against fluconazole-resistant Candida krusei by CLSI protocol based macrobroth dilution method; type: functional
Pyricularia oryzae [1] = test: Antifungal activity against Pyricularia oryzae; type: functional
Alternaria solani = test: Antifungal activity against Alternaria solani; type: functional
Rhagastis acuta = test: Antifungal activity against Rhagastis acuta measured after 3 to 4 days by agar plate diffusion method; type: functional; settings: time 3-4 day
Ogataea angusta = test: Antifungal activity against Pichia angusta measured after 3 to 4 days by agar plate diffusion method; type: functional; settings: time 3-4 day
Candida albicans [2] = test: Antifungal activity against Candida albicans measured after 3 to 4 days by agar plate diffusion method; type: functional; settings: time 3-4 day
Aspergillus niger = test: Antifungal activity against Aspergillus niger measured after 3 to 4 days by agar plate diffusion method; type: functional; settings: time 3-4 day
Cryptococcus neoformans [3] = test: Antifungal activity against Cryptococcus neoformans measured after 3 to 4 days by agar plate diffusion method; type: functional; settings: time 3-4 day
Botrytis fabae = test: Antifungal activity against Botrytis fabae measured after 3 to 4 days by agar plate diffusion method; type: functional; settings: time 3-4 day
Pyricularia oryzae [4] = test: Antifungal activity against Pyricularia oryzae assessed as inhibition of fungal growth; type: functional
Rhodotorula glutinis = test: Antimicrobial activity against Rhodotorula glutinis; type: functional
Saccharomyces cerevisiae = test: Antimicrobial activity against Saccharomyces cerevisiae; type: functional
Candida albicans [5] = test: Antimicrobial activity against Candida albicans; type: functional
Cryptococcus neoformans [6] = test: Antifungal activity against Cryptococcus neoformans var. grubii assessed as fungal growth inhibition; type: functional
Lindra thalassiae = test: Antifungal activity against Lindra thalassiae assessed as lethal dose; type: functional; settings: Lindriella thalassiae; read-out: LD50 (the source's name)
Candida albicans [7] = test: Antifungal activity against Candida albicans; type: functional, organism-based
Trichophyton rubrum = test: Antimicrobial activity against Trichophyton rubrum; type: functional, organism-based
Candida albicans [8] = test: Antifungal activity against amphotericin-B-resistant Candida albicans assessed as zone of inhibition 1 ug/disk; type: functional; settings: dose 1 µg
Cryptococcus neoformans [9] = test: Antimicrobial activity against Cryptococcus neoformans; type: functional
Candida albicans [10] = test: Antimicrobial activity against Candida albicans assessed as inhibition of microbial growth; type: functional
Candida tropicalis [11] = test: Antimicrobial activity against amphotericin-B-resistant Candida tropicalis; type: functional
Candida tropicalis [12] = test: Antimicrobial activity against nystatin-resistant Candida tropicalis; type: functional

SMILES: C=CC1OC1(C)CC(C)/C(C)=C/C=C(C)\C=C(OC)\C(=C/C(=O)OC)OC (centres undefined)
- MIC (Botrytis cinerea): 3.1 µg/mL (≈ 8.23 µM)
- MIC (Globisporangium ultimum): 0.4 µg/mL (≈ 1.06 µM)
- MIC (Saprolegnia parasitica): 0.1 µg/mL (≈ 0.266 µM)

SMILES: COc1ccc(/C=C/CCCC[C@H](C)[C@H](O)[C@@H](O)[C@H]2NC(=O)C[C@@H](O)CNC(=O)CNC(=O)[C@@H](Cc3c(C(=O)O)[nH]c4ccccc34)NC(=O)CN(C)C(=O)C[C@H]3NC(=O)C[C@H]3NC(=O)[C@H]2O)cc1
- MIC (Aspergillus fumigatus): 0.6 µg/mL (≈ 0.623 µM)

SMILES: COc1ccc2c(c1OC)O[C@]1(C(=O)N3O[C@@H]4C(=CC=C[C@H]4O)C[C@@]3(SC)C(=O)N1C)[C@@H]2SC
- MIC (Alternaria brassicae): 4 µg/mL (≈ 7.9 µM)

SMILES: COc1c(Br)cc(Br)cc1Oc1c(O)cc(Br)cc1Br
- MIC (Aspergillus): 1.95 µg/mL (≈ 3.67 µM)

SMILES: COc1cc(/C=N/O)nc(-c2ccccn2)c1 [CAERULOMYCIN A]
- MIC (Nakaseomyces glabratus): 0.39 µg/mL (≈ 1.7 µM)
- MIC (Pichia kudriavzevii): 0.39 µg/mL (≈ 1.7 µM)

SMILES: CC1CC[C@@H](O)/C=C/CC[C@H](O)C[C@@H](O)C/C=C\C=C\[C@@H](O)C/C=C/C=C\C(=O)O1 (some centres undefined)
- MIC (Pyricularia oryzae [1]): 0.8 µg/mL (≈ 1.9 µM)
- MIC (Alternaria solani): 0.8 µg/mL (≈ 1.9 µM)

SMILES: CC[C@@H](CC(=O)C(Cl)Cl)[C@H](C)c1ccc([N+](=O)[O-])cc1
- MIC (Rhagastis acuta): 0.1 µg/mL (≈ 0.314 µM)
- MIC (Ogataea angusta): 0.1 µg/mL (≈ 0.314 µM)
- MIC (Candida albicans [2]): 0.1 µg/mL (≈ 0.314 µM)
- MIC (Aspergillus niger): 0.1 µg/mL (≈ 0.314 µM)
- MIC (Cryptococcus neoformans [3]): 0.1 µg/mL (≈ 0.314 µM)
- MIC (Botrytis fabae): 0.1 µg/mL (≈ 0.314 µM)

SMILES: CC(C)=CCn1cc(CC2NC(=O)C(C(C)C)NC2=O)c2ccccc21 (centres undefined)
- MIC (Pyricularia oryzae [4]): 0.127 µg/mL (≈ 0.359 µM)

SMILES: CO[C@H]1C(=O)N[C@]2(O)CC(=O)N(C)CC(=O)N[C@H](Cc3c[nH]c4cc(Cl)ccc34)C(=O)NCC(=O)NC[C@H](O)CC(=O)N[C@H]([C@@H](O)[C@@H](O)C/C=C/C=C/c3ccccc3)[C@@H](O)C(=O)N[C@@H]12
- MIC (Rhodotorula glutinis): 0.6 µg/mL (≈ 0.648 µM)
- MIC (Saccharomyces cerevisiae): 1.6 µg/mL (≈ 1.73 µM)
- MIC (Candida albicans [5]): 3.1 µg/mL (≈ 3.35 µM)

SMILES: COC(=O)CCC[C@@H]1CC[C@@H](C#C/C=C/CCCCCC/C=C/Br)O1
- MIC (Cryptococcus neoformans [6]): 4 µg/mL (≈ 9.72 µM)

SMILES: CC(C)CC(=O)C[C@@H](C)[C@H]1CC[C@@]2(C)[C@H]3CC[C@H]4[C@](CO)(COS(=O)(=O)[O-])C(=O)CC[C@@]45C[C@@]35CC[C@]12C.[Na+]
- LC50 (Lindra thalassiae): 0.94 µg/mL

SMILES: C=C[C@@H]1C[C@H](C)C[C@H](C)[C@H]1c1c(O)ccn(O)c1=O
- IC50 (Candida albicans [7]): 6.9 µg/mL (≈ 26.2 µM)
- IC50 (Trichophyton rubrum): 1.07 µg/mL (≈ 4.06 µM)

SMILES: CCC(C)CC(C)[C@@H](O)[C@@H](C)C(=O)N[C@H](CN)C(=O)N[C@@H]([C@H](O)[C@H](O)C(=O)N[C@H](C(=O)N[C@H]1C(=O)N[C@H]([C@@H](C)O)C(=O)N[C@H](CCCN)C(=O)N[C@@H](CC(C)C)C(=O)N(C)[C@@H](CCC(N)=O)C(=O)NC(C(OC)C(N)=O)C(=O)N[C@H](CC(N)=O)C(=O)N(C)[C@@H](CC(C)C)C(=O)O[C@@H]1C)[C@@H](C)C(C)C(N)=O)C(C)(C)O (some centres undefined)
- inhibition zone (IZ) (Candida albicans [8]): 8 mm

SMILES: CCCCCCCCC(O)C(O)CC/C=C\CCCCCC(O)C(N)CO (centres undefined)
- MIC (Cryptococcus neoformans [9]): 0.2 µg/mL (≈ 0.516 µM)
- MIC (Candida albicans [10]): 0.4 µg/mL
- MIC (Candida tropicalis [11]): 0.4 µg/mL (≈ 1.03 µM)
- MIC (Candida tropicalis [12]): 0.4 µg/mL (≈ 1.03 µM)
